The structures appear in SMILES notation.

The assay deals with T1, c-kit kinase (Homo sapiens, UniProt P10721).
T1 construct: The c-kit (or kinase domain thereof) is an active kinase in AlphaScreen; poly-Histidine tag (in-house protein only) (cleaved yes); host or cells: E. coli BL21(DE3)RIL, co-expressed with PTP1B
T1 sequence (P10721 26-976): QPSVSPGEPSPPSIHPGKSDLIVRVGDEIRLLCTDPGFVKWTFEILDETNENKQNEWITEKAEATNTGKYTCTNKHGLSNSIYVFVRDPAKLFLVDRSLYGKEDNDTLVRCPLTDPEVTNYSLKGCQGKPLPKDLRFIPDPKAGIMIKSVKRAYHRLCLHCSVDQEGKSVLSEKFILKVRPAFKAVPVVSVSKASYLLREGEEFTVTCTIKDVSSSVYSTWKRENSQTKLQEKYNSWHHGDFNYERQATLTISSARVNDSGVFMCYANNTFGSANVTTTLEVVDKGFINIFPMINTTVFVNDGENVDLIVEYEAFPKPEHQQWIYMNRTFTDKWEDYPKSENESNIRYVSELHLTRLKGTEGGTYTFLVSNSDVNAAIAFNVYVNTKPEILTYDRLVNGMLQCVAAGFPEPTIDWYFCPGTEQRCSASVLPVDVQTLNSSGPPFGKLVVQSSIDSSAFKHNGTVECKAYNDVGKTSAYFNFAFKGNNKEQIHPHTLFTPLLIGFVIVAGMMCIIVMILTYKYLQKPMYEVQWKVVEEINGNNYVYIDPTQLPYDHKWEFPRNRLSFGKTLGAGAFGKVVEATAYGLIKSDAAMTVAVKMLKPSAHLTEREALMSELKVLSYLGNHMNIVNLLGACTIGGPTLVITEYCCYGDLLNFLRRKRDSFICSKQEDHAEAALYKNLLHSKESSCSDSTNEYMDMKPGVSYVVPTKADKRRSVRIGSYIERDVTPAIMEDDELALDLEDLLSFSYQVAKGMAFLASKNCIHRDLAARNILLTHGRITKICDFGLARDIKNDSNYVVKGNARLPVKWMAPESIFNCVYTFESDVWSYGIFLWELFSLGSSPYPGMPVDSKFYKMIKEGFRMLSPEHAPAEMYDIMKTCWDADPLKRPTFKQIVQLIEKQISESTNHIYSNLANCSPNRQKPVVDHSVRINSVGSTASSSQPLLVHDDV
The assay is described as follows: c-Kit biochemical assay, AlphaScreen, 10 μM ATP. Particulars: c-kit biochemical inhibitory activity; read-out: Biochemical activity (IC50 μM) Kit. Here is the method: IC50 values are determined with respect to inhibition of c-Kit kinase activity, where inhibition of phosphorylation of a peptide substrate is measured as a function of compound concentration. Compounds to be tested were dissolved in DMSO to a concentration of 20 mM. These were diluted 30 μl into 120 μl of DMSO (4 mM) and 1 μl was added to an assay plate. These were then serially diluted 1:3 (50 μl to 100 μl DMSO) for a total of 8 points. Plates were prepared such that each kinase reaction is 20 μl in 1× kinase buffer (50 mM HEPES, pH 7.2, 5 mM MgCl2, 5 mM MnCl2, 0.01% NP-40, 0.2% BSA), 5% DMSO and 10 μM ATP. […] C-kit kinase was at 0.1 ng per sample. After incubation of the kinase reaction for 1 hour at room temperature, 5 μl of donor beads (Streptavidin coated beads (Perkin Elmer Life Science) final concentration 1 μg/ml) in stop buffer (50 mM EDTA in 1× kinase buffer) was added, the sample was mixed and incubated for 20 minutes at room temperature before adding 5 μl of acceptor beads (PY20 coated beads (Perkin Elmer Life Science) final concentration 1 μg/ml) in stop buffer. The samples were incubated for 60 minutes at room temperature and the signal per well was read on AlphaQuest reader. […] The signal vs. compound concentration was used to determine the IC50.
Complementary DNA cloned from various human tissues were purchased from Invitrogen, and these were used as substrates in the PCR reactions. Specific custom synthetic oligonucleotide primers were designed to initiate the PCR product, and also to provide the appropriate restriction enzyme cleavage sites for ligation with the plasmids. The entire sequence encoding the enzyme was made through a gene synthesis procedure, using custom synthetic oligonucleotides covering the entire coding sequence (Invitrogen, see below).
The plasmid used for ligation with the kinase-encoding inserts was derivative of pET (Novagen) for expression using E. coli. The Kit kinase was engineered to include a Histidine tag for purification using metal affinity chromatography. The kinase-encoding plasmid was engineered as bicistronic mRNA to co-express a second protein that modifies the kinase protein during its expression in the host cell. Protein tyrosine phosphatase 1B (PTP), was co-expressed for dephosphorylation of the phospho-Tyrosines.
For protein expression, the plasmid containing the Kit gene was transformed into E. coli strains BL21(DE3)RIL and transformants selected for growth on LB agar plates containing appropriate antibiotics. Single colonies were grown overnight at 37° C. in 200 ml TB (Terrific broth) media. 16×1 L of fresh TB media in 2.8 L flasks were inoculated with 10 ml of overnight culture and grown with constant shaking at 37° C. Once cultures reached an absorbance of 1.0 at 600 nm, IPTG was added and cultures were allowed to grow for a further 12 to 18 hrs at temperatures ranging from 12-30° C. Cells were harvested by centrifugation and pellets frozen at […] until ready for lysis.
For protein Purification; frozen E. coli cell pellets were resuspended in lysis buffer and lysed using standard mechanical methods. Protein was purified via poly-Histidine tags using immobilized metal affinity purification IMAC. The Kit kinase was purified using a 3 step purification process utilizing; IMAC, size exclusion chromatography and ion exchange chromatography. The poly-Histidine tag was removed using Thrombin (Calbiochem).
For orientation: Alpha assays give light when donor and acceptor beads are brought close together.
By IC50 is commonly meant the midpoint of a concentration-inhibition curve. `COc1cc2ncnc(-c3ccc(S(N)(=O)=O)cc3)c2cc1OC` [P-0278, 4-(6,7-dimethoxyquinazolin-4-yl)benzenesulfonamide]: the IC50 fell in the range of 10 to 200 µM.

Consider `COc1cc2ncnc(-c3cccc(NS(=O)(=O)C4CC4)c3)c2cc1OC` [P-0279, N-[3-(6,7-dimethoxyquinazolin-4-yl)phenyl]cyclopropanesulfonamide], for which the IC50 was in the range of 10 to 200 µM.

In the case of `COc1cc2ncnc(-c3ccc(NS(=O)(=O)C4CC4)cc3)c2cc1OC` [P-0280, N-[4-(6,7-dimethoxyquinazolin-4-yl)phenyl]cyclopropanesulfonamide], the IC50 lay within 10 to 200 µM.

Take `O=S(=O)(Nc1ccc(-c2ncnc3[nH]c(C(F)F)cc23)c(F)c1)c1ccc(Cl)cc1` [P-0310, 4-chloro-N-[4-[6-(difluoromethyl)-7H-pyrrolo[2,3-d]pyrimidin-4-yl]-3-fluoro-phenyl]benzenesulfonamide]: the IC50 was in the range of 1 to 10 µM.

For the molecule `Cc1cc2c(-c3ccc(NS(=O)(=O)c4ccccc4F)c(F)c3)ncnc2[nH]1` [P-0348, 2-fluoro-N-[2-fluoro-4-(6-methyl-7H-pyrrolo[2,3-d]pyrimidin-4-yl)phenyl]benzenesulfonamide], the IC50 fell in the range of 0.0001 to 1 µM.

For the molecule `CS(=O)(=O)Nc1cc(F)c(-c2ncnc3[nH]c(-c4ccc(F)cc4)cc23)cc1F` [P-0356, N-[2,5-difluoro-4-[6-(4-fluorophenyl)-7H-pyrrolo[2,3-d]pyrimidin-4-yl]phenyl]methanesulfonamide], the IC50 lay within 0.0001 to 1 µM.

Turning to `Fc1ccc(-c2cc3c(-c4cccnc4C(F)(F)F)ncnc3[nH]2)cc1` [P-0374, 6-(4-fluorophenyl)-4-[2-(trifluoromethyl)-3-pyridyl]-7H-pyrrolo[2,3-d]pyrimidine], the IC50 was in the range of 10 to 200 µM.

Consider `Cc1cc2c(-c3ccc(NS(=O)(=O)C4CC4)cc3)ncnc2[nH]1` [P-0377, N-[4-(6-methyl-7H-pyrrolo[2,3-d]pyrimidin-4-yl)phenyl]cyclopropanesulfonamide], for which the IC50 lay within 10 to 200 µM.

Turning to `CS(=O)(=O)c1ccc(-c2ncnc3[nH]c(-c4ccc(F)cc4)cc23)cc1` [P-0391, 6-(4-fluorophenyl)-4-(4-methylsulfonylphenyl)-7H-pyrrolo[2,3-d]pyrimidine], the IC50 was in the range of 1 to 10 µM.

For `Fc1ccc(-c2cc3c(-c4ccncc4)ncnc3[nH]2)cc1` [P-0392, 6-(4-fluorophenyl)-4-(4-pyridyl)-7H-pyrrolo[2,3-d]pyrimidine], the IC50 lay within 0.0001 to 1 µM.

With `Fc1ccc(-c2cc3c(-c4ccc(F)cc4)ncnc3[nH]2)cc1` [P-0395, 4,6-bis(4-fluorophenyl)-7H-pyrrolo[2,3-d]pyrimidine], the IC50 fell in the range of 0.0001 to 1 µM.

`CCCCNS(=O)(=O)c1ccc(-c2ncnc3[nH]c(-c4ccc(F)cc4)cc23)cc1` [P-0421, N-butyl-4-[6-(4-fluorophenyl)-7H-pyrrolo[2,3-d]pyrimidin-4-yl]benzenesulfonamide]: the IC50 lay in the range of 10 to 200 µM.

With `Cc1ccc(-c2cc3c(N4CCC(NS(=O)(=O)c5ccc(OC(F)(F)F)cc5)CC4)ncnc3[nH]2)cn1` [P-0459, N-[1-[6-(6-methyl-3-pyridyl)-7H-pyrrolo[2,3-d]pyrimidin-4-yl]-4-piperidyl]-4-(trifluoromethoxy)benzenesulfonamide], the IC50 is 10 to 200 µM.

On to `N#Cc1ccc(-c2cc3c(N4CCC(NS(=O)(=O)c5ccc(OC(F)(F)F)cc5)CC4)ncnc3[nH]2)cc1` [P-0464, N-[1-[6-(4-cyanophenyl)-7H-pyrrolo[2,3-d]pyrimidin-4-yl]-4-piperidyl]-4-(trifluoromethoxy)benzenesulfonamide], for which the IC50 was in the range of 10 to 200 µM.

In the case of `CS(=O)(=O)NC1CCN(c2ncnc3[nH]c(C#CC4CC4)cc23)CC1` [P-0472, N-[1-[6-(2-cyclopropylethynyl)-7H-pyrrolo[2,3-d]pyrimidin-4-yl]-4-piperidyl]methanesulfonamide], the IC50 was in the range of 10 to 200 µM.

As to `O=C1CCCN1c1ccc(S(=O)(=O)NC2CCN(c3ncnc4[nH]c(-c5ccc(Cl)cc5)cc34)CC2)cc1` [P-0473, N-[1-[6-(4-chlorophenyl)-7H-pyrrolo[2,3-d]pyrimidin-4-yl]-4-piperidyl]-4-(2-oxopyrrolidin-1-yl)benzenesulfonamide], the IC50 lay within 10 to 200 µM.

For the molecule `CN(C)c1ccc(NC(=O)NC2CCN(c3ncnc4[nH]ccc34)CC2)cc1` [P-0506, 1-(4-dimethylaminophenyl)-3-[1-(7H-pyrrolo[2,3-d]pyrimidin-4-yl)-4-piperidyl]urea], the half-inhibitory concentration (IC50) is 10 to 200 µM.

Take `O=C(Nc1ccc(Cl)cc1)NC1CCN(c2ncnc3[nH]ccc23)CC1` [P-0519, 1-(4-chlorophenyl)-3-[1-(7H-pyrrolo[2,3-d]pyrimidin-4-yl)-4-piperidyl]urea]: the IC50 was in the range of 10 to 200 µM.

Turning to `O=C(NC(=O)c1ccccc1)NC1CCN(c2ncnc3[nH]ccc23)CC1` [P-0522, N-[[1-(7H-pyrrolo[2,3-d]pyrimidin-4-yl)-4-piperidyl]carbamoyl]benzamide], the IC50 fell in the range of 10 to 200 µM.

Turning to `O=C(NC1CCCC1)NC1CCN(c2ncnc3[nH]ccc23)CC1` [P-0526, 1-cyclopentyl-3-[1-(7H-pyrrolo[2,3-d]pyrimidin-4-yl)-4-piperidyl]urea], the IC50 is 10 to 200 µM.

In the case of `CCCC(=O)NC1CCN(c2ncnc3[nH]ccc23)CC1` [P-0527, N-[1-(7H-pyrrolo[2,3-d]pyrimidin-4-yl)-4-piperidyl]butanamide], the IC50 is 10 to 200 µM.

As for `O=C(NC1CCN(c2ncnc3[nH]ccc23)CC1)C1CCCCC1` [P-0528, N-[1-(7H-pyrrolo[2,3-d]pyrimidin-4-yl)-4-piperidyl]cyclohexanecarboxamide], the IC50 fell in the range of 10 to 200 µM.

As for `O=C(NC1CCN(c2ncnc3[nH]ccc23)CC1)C1CCCC1` [P-0529, N-[1-(7H-pyrrolo[2,3-d]pyrimidin-4-yl)-4-piperidyl]cyclopentanecarboxamide], the IC50 lay in the range of 10 to 200 µM.

For the molecule `CCc1ccc(C(=O)NC2CCN(c3ncnc4[nH]ccc34)CC2)cc1` [P-0530, 4-ethyl-N-[1-(7H-pyrrolo[2,3-d]pyrimidin-4-yl)-4-piperidyl]benzamide], the IC50 lay in the range of 10 to 200 µM.

For the molecule `O=C(NC1CCN(c2ncnc3[nH]ccc23)CC1)c1ccccc1` [P-0531, N-[1-(7H-pyrrolo[2,3-d]pyrimidin-4-yl)-4-piperidyl]benzamide], the IC50 is 10 to 200 µM.

Take `CCCS(=O)(=O)NC1CCN(c2ncnc3[nH]ccc23)CC1` [P-0532, N-[1-(7H-pyrrolo[2,3-d]pyrimidin-4-yl)-4-piperidyl]propane-1-sulfonamide]: the IC50 lay in the range of 10 to 200 µM.

In the case of `O=S(=O)(NC1CCN(c2ncnc3[nH]ccc23)CC1)c1ccccc1` [P-0533, N-[1-(7H-pyrrolo[2,3-d]pyrimidin-4-yl)-4-piperidyl]benzenesulfonamide], the IC50 fell in the range of 10 to 200 µM.

With `CCOc1ccc(NC(=O)NC2CCN(c3ncnc4[nH]ccc34)CC2)cc1` [P-0534, 1-(4-ethoxyphenyl)-3-[1-(7H-pyrrolo[2,3-d]pyrimidin-4-yl)-4-piperidyl]urea], the IC50 fell in the range of 10 to 200 µM.

In the case of `CCc1ccc(NC(=O)NC2CCN(c3ncnc4[nH]ccc34)CC2)cc1` [P-0535, 1-(4-ethylphenyl)-3-[1-(7H-pyrrolo[2,3-d]pyrimidin-4-yl)-4-piperidyl]urea], the IC50 lay in the range of 1 to 10 µM.

Regarding `CCCNC(=O)NC1CCN(c2ncnc3[nH]ccc23)CC1` [P-0536, 1-propyl-3-[1-(7H-pyrrolo[2,3-d]pyrimidin-4-yl)-4-piperidyl]urea], the IC50 fell in the range of 10 to 200 µM.

Consider `O=C(NC1CCCCC1)NC1CCN(c2ncnc3[nH]ccc23)CC1` [P-0537, 1-cyclohexyl-3-[1-(7H-pyrrolo[2,3-d]pyrimidin-4-yl)-4-piperidyl]urea], for which the IC50 was in the range of 10 to 200 µM.

On to `O=C(Nc1ccccc1)NC1CCN(c2ncnc3[nH]ccc23)CC1` [P-0538, 1-phenyl-3-[1-(7H-pyrrolo[2,3-d]pyrimidin-4-yl)-4-piperidyl]urea], for which the IC50 fell in the range of 10 to 200 µM.

`Cc1ccc(-c2cc3c(C4=CCC(NS(=O)(=O)c5ccc(OC(F)(F)F)cc5)CC4)ncnc3[nH]2)cn1` (stereo not drawn) [P-0544, N-[4-[6-(6-methyl-3-pyridyl)-7H-pyrrolo[2,3-d]pyrimidin-4-yl]cyclohex-3-en-1-yl]-4-(trifluoromethoxy)benzenesulfonamide]: the IC50 is 10 to 200 µM.

Values taken from patent US10227357B2, “Compounds and methods for kinase modulation, and indications therefor” (Plexxikon Inc., priority 2012, dated 2019).
